How the values were obtained:
[1] = system: gastrointestinal bleeding; experiment: Guaiac test on fecal pellets after indomethacin; format: in vivo, C57BL/6J mice; conditions: 10 mg/kg oral, following morning
Procedure: For indomethacin experiments, animals were inoculated with blood sensor bacteria and fecal pellets were collected 6 hours later for luminescence analysis and CFU enumeration. Indomethacin (Sigma) solution was prepared by dissolving the compound in absolute ethanol to a concentration of 20 mg/mL. Immediately prior to mouse gavage, the indomethacin stock solution was diluted to 1.25 mg/mL in PBS and 0.2 mL of dilute indomethacin solution was administered to each animal (10 mg/kg). Preparation of indomethacin solution using this method was essential to ensure reliable and reproducible induction of gastrointestinal bleeding. The following morning, gastrointestinal bleeding was confirmed by performing a guaiac test (Hemoccult, Beckman Coulter) on fecal pellets from each animal. […] Subsequently, mice were again administered blood sensor bacteria and fecal pellets were collected 6 hours later for luminescence analysis and CFU enumeration.

PL(HrtO) = experiment: HrtR-mediated repression of PL(HrtO)-luxCDABE luminescence; format: cell-based, E. coli MG1655; conditions: co-transformation of PL(HrtO)-luxCDABE with constitutively expressing HrtR construct
Procedure: For genetic circuit characterization, overnight cultures were diluted 1:100 in fresh LB and incubated with shaking at 37° C. for 2 hours. Cultures were removed from the incubator and 200 μL of culture was transferred to a 96-well plate containing various concentrations of inducer. The plate was returned to a shaking incubator at 37° C. Following 2 hours of incubation, luminescence was read using a BioTek Synergy H1 Hybrid Reader using a […] integration time and a sensitivity of 135. Luminescence values, measured in relative luminescence units (RLUs), were normalized by the optical density of the culture measured at 600 nm. For in vitro kinetic studies, subcultured cells were mixed with inducer in a 96-well plate and immediately placed in the plate reader set at 37° C. without shaking. Luminescence and absorbance was read at 5 minute intervals.

| Molecule | guaiac test (gastrointestinal bleeding) [1] | reduction in luminescence (PL(HrtO)) [fold] |
| --- | --- | --- |
| COc1ccc2c(c1)c(CC(=O)O)c(C)n2C(=O)c1ccc(Cl)cc1 [indomethacin] | guaiac positive | – |
| HrtR: heme-regulated TetR-family transcriptional repressor from Lactococcus lactis (protein, Heme-responsive transcriptional repressor, heme-regulated TetR-family transcriptional repressor from Lactococcus lactis) MPKSTYFSLSDEKRKRVYDACLLEFQTHSFHEAKIMHIVKALDIPRGSFYQYFEDLKDSYYYILSQETVEIHDLFFNLLKEYPLEVALNKYKYLLLENLVNSPQYNLYKYRFLDWTYELERDWKPKGEVTVPARELDNPISQVLKSVIHNLVYRMFSENWDEQKFIETYDKEIKLLTEGLLNYVTESKK | – | 4.4 |

Source: patent US20190313942A1, “INGESTIBLE SYSTEM TO MONITOR GASTROINTESTINAL HEALTH IN SITU” (Massachusetts Institute of Technology, priority 2018, published 2019)
